Publication PMC8307938, “The Lysozyme Inhibitor Thionine Acetate Is Also an Inhibitor of the Soluble Lytic Transglycosylase Slt35 from Escherichia coli” (Molecules, 2021)

Biological target: T1, Slt35 (Escherichia coli, UniProt P41052)
T1 construct: gene mltB; N-terminal His-tag
T1 sequence (P41052 19-361): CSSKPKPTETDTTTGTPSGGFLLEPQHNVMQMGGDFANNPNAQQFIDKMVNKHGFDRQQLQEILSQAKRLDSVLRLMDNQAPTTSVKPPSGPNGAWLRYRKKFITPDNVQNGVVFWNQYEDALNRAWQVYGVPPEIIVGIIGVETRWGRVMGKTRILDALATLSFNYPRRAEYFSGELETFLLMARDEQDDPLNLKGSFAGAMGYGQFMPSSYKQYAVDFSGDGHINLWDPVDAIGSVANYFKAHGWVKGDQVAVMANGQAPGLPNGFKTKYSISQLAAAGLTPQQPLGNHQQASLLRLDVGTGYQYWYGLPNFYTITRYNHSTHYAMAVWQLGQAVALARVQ
Experiment: saturation transfer difference NMR ([…] compound, […] Slt35; weak; no inhibition up to […])
Type: binding

## OC[C@H]1NC[C@H](O)[C@@H](O)[C@@H]1O [1-deoxynojirimycin]
  saturation transfer difference NMR (5 mM compound, 20 μM Slt35); weak; no inhibit: weak enhancement of signals from 1-deoxynojirimycin on selective excitation of Slt35 (Figure S1), suggesting that this compound is capable of binding
